According to US8211445B2, “PSM peptides as vaccine targets against methicillin-resistant Staphylococcus” (The United States of America, as represented by the …, priority 2007, dated 2012):

Legend:
human neutrophils [1] = assay: Scanning electron microscopy of neutrophils exposed to PSMα3; format: cell-based; settings: PSMα3 10 μg/ml
Protocol: FIG. 4 includes several panels showing PSM-induced lysis of human neutrophils. FIG. 4A is a graph showing human neutrophil lysis, measured by release of lactate dehydrogenase (LDH) activity, with synthetic PSM peptides at 10 μg/ml. FIG. 4B is a graph showing human neutrophil lysis, measured by release of LDH activity, with culture filtrates of wild-type, PSM gene deletion and complemented CA- and HA-MRSA strains. Data represent means±SEM of at least three independent measurements. FIG. 4C is a series of digital images showing in vitro lysis of human neutrophils with synthetic PSMα3. Neutrophils were incubated with PSMα3 (10 μg/ml) and observed by scanning electron microscopy at the time intervals indicated, in comparison to untreated controls. […] The peak at ˜190 nm is indicative of α-helicity. […] FIG. 4F is a pair of graphs showing the infiltration and killing of […] leukocytes in a murine peritonitis model. Two hours after infection with the bacteria, neutrophils and monocytes were counted in peritoneal exudates, and dead and live cells were distinguished, using flow cytometry. The number of mice was n=5 for all samples except n=4 for MW2 samples (the results from one mouse in the MW2 wild-type and PSMα deletion strain samples were not included because of extensive bleeding). […]

human neutrophils [2] = assay: Neutrophil chemotaxis (transwell); format: cell-based; settings: PSM-mec vs PSMα3; range similar to other α-type PSMs, in general higher than β-type PSMs (FIG. 21A)
Protocol: Neutrophils were subjected to a brief hypotonic shock with pyrogen-free water (Sigma), washed, and suspended at 5×10^6 cells/ml in HBSS containing 0.05% human serum albumin (HSA; CLB). Chemotaxis of neutrophils was determined by using fluorescently-labeled neutrophils that migrated through a membrane fitted into an insert of a 24-well microtiter plate transwell system (Costar) containing a prewetted 3-μm-pore-size polycarbonate filter as described (de Haas et al., J Exp Med 199, 687-95, 2004). For measurement of calcium ion fluxes, 5×10^6 neutrophils/ml were loaded with 2 μM Fluo-3-AM (Molecular Probes) in RPMI containing 0.05% HSA (RPMI-HSA) for 20 minutes at room temperature under agitation, washed twice with buffer, and resuspended in RPMI-HSA at 10^6 cells/ml. Calcium fluxes were analyzed with a FACScalibur (Becton Dickinson).
Neutrophils were subjected to a brief hypotonic shock with pyrogen-free water (Sigma), washed, and suspended at 5×10^6 cells/ml in HBSS containing 0.05% human serum albumin (HAS; CLB). Chemotaxis of neutrophils was determined by using fluorescently-labeled neutrophils that migrated through a membrane fitted into an insert of a 24-well microtiter plate transwell system (Costar) containing a prewetted 3-μm-pore-size polycarbonate filter. […] Calcium fluxes were analyzed with a FACScalibur (Becton Dickinson). […]

[3] = Immunization of mice with synthetic PSM peptides, PSM-specific antibodies by ELISA; format: in vivo, mice (BALB/c); settings: 50 μg s.c. with CFA, booster with IFA
Protocol: In order to determine the immunogenicity of synthetic PSM peptides, mice (BALB/c, female, 6-8 weeks) were injected subcutaneously with 50 μg (100 μL) of each PSM peptide in sterile PBS emulsified with complete Freund's adjuvant (CFA) for primary immunization. A booster injection containing incomplete Freund's adjuvant (IFA) instead of CFA was given to the animals 14 days after the primary immunization. The control group of animals received injections of sterile PBS and adjuvants only. Three blood withdrawals were performed on each mouse. The first two blood samples were collected via retro-orbital route immediately before primary injection and before booster injection, respectively. All animals were sacrificed 21 days after booster injection for the terminal blood samples.
PSM-specific antibodies in mouse serum were determined by ELISA assays. Microtiter plates (Nunc 96-well flat-bottom MaxiSorp plates) were coated with 20 μg/ml of each synthetic PSM peptides in PBS plus 0.05% NaN3, and incubated overnight at 4° C. The plates were washed with PBS containing 0.05% Tween-20, and blocked for 1 hour at room temperature with 1% BSA (Sigma) and 0.05% NaN3 in PBS. Serum samples were diluted in assay diluent (Tris-buffered saline containing 0.1% BSA and 0.05% Tween-20, pH 7.2), and added to the washed wells at 100 μl/well for an incubation of 2 hours at room temperature. Plates were washed again and HRP-labeled goat anti-mouse IgG (R&D Systems) and goat anti-mouse IgM (Jackson ImmunoResearch Laboratory) were diluted in assay diluent and added to the plates at 100 μl/well for an incubation of 1 hour at room temperature in order to detect PSM specific mouse IgG and IgM, respectively. Plates were washed again and a substrate solution containing equal volume of Tetramethylbenzidine and H2O2 was added to the plates at 100 μl/well for color development. The reaction was terminated by adding 50 μl of 1 M H2SO4 to each well, and optical density (O.D.) was measured at 450 nm using an ELISA plate reader.

fMEFVAKLFKFFKDLLGKFLGNN [PSMα3]
state of neutrophils after 60 minutes (human neutrophils [1]): many neutrophils were completely destroyed | time of exposure until signs of priming and compromised integrity of the plasma membrane (human neutrophils [1]): ≤ 5 min | chemotactic activities (human neutrophils [2]): most potent | specific antibody production in vivo ([3]; N-formylated synthetic PSM peptides, BALB/c mice (FIG. 11)): most robust antibody production | specific antibody production in vivo ([3]; non N-formylated synthetic PSM peptides, BALB/c mice (FIG. 12)): strongest response
